From patent US5106951A, “Antibody conjugates” (NeoRx Corporation, priority 1989, dated 1992)

Assays:
Experiment in all cases: Binding of doxorubicin by synthetic oligopeptide, absorbance titration
[1] = target: synthetic oligopeptide, Peptide 10, EEK(Fmoc)GK(Fmoc)EEGGC; details: pH 7.0 0.1M phosphate buffer; doxorubicin absorption at 475 nm or 565 nm titrated with peptide
Description: (§1) Experiments have been conducted to assess the use of synthetic oligopeptides to bind the drug doxorubicin. Binding was followed by changes in the visible spectrum of doxorubicin, and analyzed by titrating the drug absorption spectrum at 475 nm or 565 nm with varying concentrations of peptide, in pH 7.0 0.1M phosphate buffer. Binding curves were fit to a single hyperbola with the program Enzfitter (Elsevier-Biosoft). These peptides were designed to test the effectiveness in intercalating doxorubicin of a 1,3-spacing between amino acids containing aromatic groups in their side chains (i.e., a single non-aromatic amino acid intervenes between the two residues having aromatic side chains). The amino acids are C, cys; K, lys; W, trp; G, gly; E, glu; D, asp; Fmoc, 9-fluorenylmethoxycarbonyl, attached to the lysine epsilon-amino group; and MIANS, 2-(4'-maleimidylanilino)naphthalene-6-sulfonic acid attached to cysteine.

[2] = target: synthetic oligopeptide, Peptide 3, […]-amide; details: pH 7.0 0.1M phosphate buffer, doxorubicin absorption at 475 nm or 565 nm titrated with peptide
Description: as §1

[3] = target: synthetic oligopeptide, Peptide 1, CKWGWK-amide; details: pH 7.0 0.1M phosphate buffer, doxorubicin absorption at 475 nm or 565 nm titrated with peptide
Description: as §1

[4] = target: synthetic oligopeptide, Peptide 4, KK(Fmoc)GK(Fmoc)KGGC; details: pH 7.0 0.1M phosphate buffer, doxorubicin absorption at 475 nm or 565 nm titrated with peptide
Description: as §1

[5] = target: synthetic oligopeptide, Peptide 9, EK(Fmoc)EK(Fmoc)EGGC; details: pH 7.0 0.1M phosphate buffer, doxorubicin absorption at 475 nm or 565 nm titrated with peptide
Description: as §1

[6] = target: synthetic oligopeptide, Peptide 2, CKWGWGWK-amide; details: pH 7.0 0.1M phosphate buffer, doxorubicin absorption at 475 nm or 565 nm titrated with peptide
Description: as §1

[7] = target: synthetic oligopeptide, Peptide 7, EK(Fmoc)GK(Fmoc)EGGC; details: pH 7.0 0.1M phosphate buffer; 1,3 spacing of aromatic side chains
Description: as §1

[8] = tested on: synthetic oligopeptide, Peptide 11, EC(MIANS)GC(MIANS)EGGC(Acm)
Description: as §1
This oligopeptide was prepared by first synthesizing the oligopeptide ECGCEGGC(Acm), wherein "Acm" represents an acetamidomethyl protecting group. The synthesis was conducted using the solid phase methodology of Barany and Merrifield, supra, and Houghten, R. A., Proc Nat. Acad. Sci. USA 82:5131, 1985. The number of cysteine thiols per peptide was 1.8 as measured by titration with Ellman's reagent. […]
The peptide concentration was determined with ninhydrin. […]

[9] = target: synthetic oligopeptide, Peptide 8, DK(Fmoc)GK(Fmoc)DGGC (DK(Fmoc)GK(Fmoc)DGGC-amide); details: 50 μM doxorubicin in 0.1M phosphate buffer at pH 7.0, 475 nm, fit to single hyperbola; read-out: Kd (apparent dissociation constant)
Description: as §1
No absorbance change was observed when the oligopeptide was added to buffer in the absence of doxorubicin. […] Oligopeptide carrier alone was added to the reference cuvette. The binding constant is derived from the nonlinear least squares best fit to a single hyperbola using the program Enzfitter (Elsevier-Biosoft), yielding an apparent dissociation constant of 22 μM.

[10] = target: synthetic oligopeptide, Peptide 6, EK(Fmoc)K(Fmoc)EGGC; details: pH 7.0 0.1M phosphate buffer, 1,2 spacing of aromatic side chains
Description: as §1, with “These peptides were designed to test the effectiveness in intercalating doxorubicin of a 1,3-spacing between amino acids containing aromatic groups in their side chains (i.e., a single non-aromatic amino acid intervenes between the two residues having aromatic side chains).” left out

[11] = target: synthetic oligopeptide, Peptide 5, EK(Fmoc)GGK(Fmoc)EGGC; details: pH 7.0 0.1M phosphate buffer, 1,4 spacing of aromatic side chains
Description: as §1, with “These peptides were designed to test the effectiveness in intercalating doxorubicin of a 1,3-spacing between amino acids containing aromatic groups in their side chains (i.e., a single non-aromatic amino acid intervenes between the two residues having aromatic side chains).” left out

SMILES: COc1cccc2c1C(=O)c1c(O)c3c(c(O)c1C2=O)C[C@@](O)(C(=O)CO)C[C@@H]3O[C@H]1C[C@H](N)[C@H](O)[C@H](C)O1 [Doxorubicin, doxorubicin]
- Kd [1]: 33 µM
- Kd [2]: same
- Kd ([2]; listed as doxorubicin): no detectable binding
- Kd [3]: no detectable
- Kd ([3]; listed as doxorubicin): no detectable binding
- Kd [4]: same
- Kd ([4]; listed as doxorubicin): no detectable binding
- Kd [5]: no detectable
- Kd ([5]; listed as doxorubicin): binding is not observed
- Kd [6]: same
- Kd ([6]; listed as doxorubicin): no detectable binding
- Kd [7]: 280 µM
- improvement of binding of doxorubicin by MIANS side chain versus FMOC ([8]; MIANS peptide compared with FMOC peptide, 1,3 spacing): about 6 fold
- Kd ([8]; pH 7.0 0.1M phosphate buffer, at 565 or 580 nm, read-out: Kd (best-fit apparent dissociation constant)): 48 µM
- Kd [9]: 22 µM
- Kd [10]: same
- Kd ([10]; listed as doxorubicin): undetectable binding
- Kd [11]: same
- Kd ([11]; listed as doxorubicin): the same result is obtained
